Measurements: ChEMBL document CHEMBL2086348, “Amide-based derivatives of β-alanine hydroxamic acid as histone deacetylase inhibitors: attenuation of potency through resonance effects” (Bioorg Med Chem Lett, 2012)
pIC50: −log10 of the molar value.

Columns and labels:
[1] = Antiproliferative activity against human BE(2)-C cells at 50 uM after 72 hrs by Alamar blue assay; type: functional
Histone deacetylase 1 [2] = target: T1, Histone deacetylase 1 (Homo sapiens, UniProt Q13547); experiment: Inhibition of HDAC1 by fluorometric assay
T1 sequence (Q13547 whole entry): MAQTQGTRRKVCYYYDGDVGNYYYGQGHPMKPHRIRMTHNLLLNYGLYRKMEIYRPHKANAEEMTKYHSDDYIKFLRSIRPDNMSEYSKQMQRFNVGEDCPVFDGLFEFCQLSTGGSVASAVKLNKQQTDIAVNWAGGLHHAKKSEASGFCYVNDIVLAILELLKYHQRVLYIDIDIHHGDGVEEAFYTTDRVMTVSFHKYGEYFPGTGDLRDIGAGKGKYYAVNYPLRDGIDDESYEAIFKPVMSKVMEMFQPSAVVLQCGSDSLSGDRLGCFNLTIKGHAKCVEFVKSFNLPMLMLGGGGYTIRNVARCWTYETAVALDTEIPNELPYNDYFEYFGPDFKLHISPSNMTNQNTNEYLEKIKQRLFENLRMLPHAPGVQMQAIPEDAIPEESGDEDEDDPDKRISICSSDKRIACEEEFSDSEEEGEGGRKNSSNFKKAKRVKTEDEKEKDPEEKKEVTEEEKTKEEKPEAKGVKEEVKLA

[3] = Antiproliferative activity against human BE(2)-C cells after 72 hrs by Alamar blue assay; type: functional, cell-based
Histone deacetylase 1 [4] = target: T1, Histone deacetylase 1; experiment: Inhibition of HDAC1 at 250 uM by fluorometric assay
[5] = target: Histone deacetylase (Homo sapiens) (UniProt Q13547+O15379+Q9UBN7+Q92769+Q9UQL6+Q8WUI4+Q9BY41+Q96DB2+P56524+Q9UKV0+Q969S8); experiment: Inhibition of HDAC in human HeLa cell extracts at 1 uM; type: protein assay

Row | pIC50 (Histone deacetylase 1 [2]) | inhibition (Histone deacetylase 1 [4]) | inhibition [5] | Structure (SMILES) | Activity [1] | IC70 [3]
1 | 4.10 | – | – | Cc1ccc(CCC(=O)NCCC(=O)NO)cc1 | 72.4% | –
2 | – | – | – | CC(/C=C/C(=O)NO)=C\[C@@H](C)C(=O)c1ccc(N(C)C)cc1 [TRICHOSTATIN] | – | 0.05 µM
3 | < 3.60 | 40% | – | CN(C)c1ccc(/C=C/C(=O)NCCC(=O)NO)cc1 | 57% | –
4 | 4.08 | – | – | Cc1ccc(OCC(=O)NCCC(=O)NO)cc1 | 80.4% | –
5 | 4.40 | – | – | O=C(CCNC(=O)Cc1ccc([N+](=O)[O-])cc1)NO | 87.9% | –
6 | 4.42 | – | – | CN(C)c1ccc(CC(=O)NCCC(=O)NO)cc1 | 62.8% | –
7 | 4.17 | – | 19% | O=C(/C=C/c1ccccc1)NCCC(=O)NO | 88.6% | –
